What was measured:
[1] = Plasma pharmacokinetics after per os enrofloxacin alone or with per os propolis (HPLC-FL, non-compartmental analysis); conditions: rabbit plasma, CPR = metabolite of ENR
Description: (§1) This study was carried out under ideal conditions for rabbits, with ad libitum food and water. A total of 12 New Zealand White female rabbits, aged 4–6 months and weighing 2500–3000 g, were used in this study. The rabbits were randomly allocated into two groups, and each group consisted of six animals in the first phase of the study. This study was performed according to a two-phase longitudinal pharmacokinetic design. A 40-day elimination period was allowed between the treatments.
(§2) The collected blood samples were centrifuged at 13,000 rpm for 10 min, and plasma was removed and stored at −20 °C until HPLC analysis.
The mobile phase consisted of acetonitrile, and methanol (50:50) and potassium phosphate monobasic (20 mM, pH: 3.40) were delivered in an isocratic fashion at a flow rate of 1 mL/min. The fluorescence detector (FL, G1321B, Agilent, Germany) was at an excitation wavelength of 280 nm and an emission wavelength of 450 nm. […]
(§3) The plasma concentration–time curves obtained after each treatment in the individual animals were fitted with the WinNonlin software program (Version 5.2, Pharsight Corporation, Mountain View, CA, USA). The pharmacokinetic parameters for each animal were analyzed using non-compartmental model analysis. […]
The mean residence time (MRT) was calculated as follows: MRT0→∞ = AUMC0→∞/AUC0→∞ […]

[2] = Observation of systemic or local adverse effects during the study; conditions: rabbits; enrofloxacin per os 20 mg/kg or IM 10 mg/kg, propolis 100 mg resin/kg per os
Description: The significance of the results was analyzed pharmacokinetically.
as §1

[3] = Plasma pharmacokinetics after intramuscular enrofloxacin alone or with per os propolis (HPLC-FL, non-compartmental analysis); conditions: after ENR 10 mg/kg IM alone
Description: as §1, §2
The mobile phase consisted of acetonitrile, and methanol (50:50) and potassium phosphate monobasic (20 mM, pH: 3.40) were delivered in an isocratic fashion at a flow rate of 1 mL/min. The fluorescence detector (FL, G1321B, Agilent, Germany) was at an excitation wavelength of 280 nm and an emission wavelength of 450 nm. The Photo Diode Array Detector (DAD) was set at a wavelength of 279 nm for marbofloxacin (I.S.) analysis. The injection volume was 50 µL throughout the analysis, and a chromatographic analysis was completed in 10 min for plasma samples following injection. […]
as §3
The mean residence time (MRT) was calculated as follows: MRT0→∞ = AUMC0→∞/AUC0→∞
Terminal half-life (T1/2λz) was calculated as follows: T1/2λz= −ln(2)/λz where λz represents the first-order rate constant associated with the terminal (log-linear) portion of the curve.
The pharmacokinetic parameters are reported as mean (±SD). Harmonic means were calculated for T1/2λz and MRT0–∞. […] Non-normally distributed data were analyzed by a non-parametric Mann–Whitney U-Test; meanwhile, normally distributed data were compared by independent t-test using SPSS Statistics 23.0 (IBM Corp, Armonk, NY, USA). […]

[4] = 16 volunteers; subtherapeutic doses with propolis (375 mg/day); ref [21]; cited from earlier work
[5] = propolis coadministered with duloxetine; ref [19]; cited from earlier work

O=C(O)c1cn(C2CC2)c2cc(N3CCNCC3)c(F)cc2c1=O [CPR + PP]
AUMC0-∞ (dose-normalized) ([1]; after ENR 20 mg/kg per os with propolis 100 mg resin/kg): 63.99±17.18 µg.h2/ml

O=C(O)c1cn(C2CC2)c2cc(N3CCNCC3)c(F)cc2c1=O [CPR, ciprofloxacin]
AUMC0-∞ (dose-normalized) ([1]; after ENR 20 mg/kg per os alone): 27.72±13.72 µg.h2/ml

CCN1CCN(c2cc3c(cc2F)c(=O)c(C(=O)O)cn3C2CC2)CC1 [ENR, enrofloxacin]
systemic or local adverse effects [2]: neither systemic nor local adverse effects were observed | AUMC0-∞ (dose-normalized) ([3]; dose-normalized, rabbit plasma, CPR = metabolite of ENR): 59.21±18.78 µg.h2/ml | Cmax ([3]; female, New Zealand White, rabbit, plasma, im, 10 mg/kg, Cmax, n = 6, CPR = metabolite of ENR): 2980 ± 350 ng/mL | Tmax ([3]; female, New Zealand White, rabbit, plasma, im, 10 mg/kg, Tmax, n = 6, CPR = metabolite of ENR): 28.2 ± 4.8 min

Cn1c(=O)c2c(ncn2C)n(C)c1=O [caffeine]
change of AUC with propolis [4]: decreased

CNCC[C@H](Oc1cccc2ccccc12)c1cccs1 [duloxetine]
increase in AUC with propolis coadministration [5]: 20–30% | increase in Cmax with propolis coadministration [5]: 20–30%

CCCCc1nc(Cl)c(CO)n1Cc1ccc(-c2ccccc2-c2nn[nH]n2)cc1 [losartan]
change of AUC with propolis [4]: decreased

Cc1ncc2n1-c1ccc(Cl)cc1C(c1ccccc1F)=NC2 [midazolam]
change of AUC with propolis [4]: increased

COc1ccc2[nH]c([S+]([O-])Cc3ncc(C)c(OC)c3C)nc2c1 (stereo not drawn) [omeprazole]
change of AUC with propolis [4]: increased
